Assay results taken from PubChem BioAssay AID328 (DTP/NCI, 2004).
Values joined by “and” are separate entries in the source; they are usually repeats but may differ in a detail not shown here. Equal values may be shown once. Toxic doses and inconclusive results are not listed.

System: BDF1 mice, P388 leukemia ip, median survival T/C
Experiment: NCI In Vivo Anticancer Drug Screen. Data for tumor model P388 Leukemia (intraperitoneal) in B6D2F1 (BDF1) mice
Settings: endpoint: median survival time, higher = longer survival
Summary of the method: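 Survival ratio, drug arm over vehicle arm, in mice with a transplanted tumour.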

[1] = dose: 25.0 mg/kg/injection, schedule: Q04DX003 (ip), vehicle: saline
[2] = dose: 25.0 mg/kg/injection, schedule: Q01DX009 (ip), vehicle: saline with Tween-80
[3] = dose: 50.0 mg/kg/injection, schedule: Q01DX009 (ip), vehicle: saline with Tween-80
[4] = dose: 100.0 mg/kg/injection, schedule: Q01DX009 (ip), vehicle: saline with Tween-80
[5] = dose: 4.0 mg/kg/injection, schedule: Q01DX009 (ip), vehicle: saline
[6] = dose: 200.0 mg/kg/injection, schedule: Q01DX009 (ip), vehicle: saline with Tween-80
[7] = dose: 400.0 mg/kg/injection, schedule: Q01DX009 (ip), vehicle: saline with Tween-80

For CCCCCCCCOP(=O)(N1CC1)N1CC1, which T/C (dose: 12.5 mg/kg/injection, schedule: Q04DX003 (ip), vehicle: saline) is on record?
Its T/C is 170 % of control.

What about the T/C (dose: 14.0 mg/kg/injection, schedule: Q04DX003 (ip), vehicle: saline) of the same compound?
Its T/C is 150 % of control.

And the T/C (dose: 21.0 mg/kg/injection, schedule: Q04DX003 (ip), vehicle: saline)?
The T/C was 154 % of control.

What about the T/C (dose: 25.0 mg/kg/injection, schedule: Q01DX009 (ip), vehicle: saline) of the same compound?
The T/C was 183 % of control.

And the T/C [1]?
The T/C was 160 % of control.

What about the T/C (dose: 33.0 mg/kg/injection, schedule: Q01DX009 (ip), vehicle: saline) of the same compound?
The T/C was 211 % of control.

What about the T/C (dose: 33.0 mg/kg/injection, schedule: Q04DX003 (ip), vehicle: saline) of the same compound?
Its T/C is 180 % of control and 222 % of control.

And the T/C (dose: 50.0 mg/kg/injection, schedule: Q01DX009 (ip), vehicle: saline)?
Its T/C is 230 % of control and 250 % of control.

And the T/C (dose: 50.0 mg/kg/injection, schedule: Q04DX003 (ip), vehicle: saline)?
The T/C was 242 % of control and 285 % of control.

What about the T/C (dose: 75.0 mg/kg/injection, schedule: Q01DX009 (ip), vehicle: saline) of the same compound?
The T/C was 111 % of control.

What about the T/C (dose: 75.0 mg/kg/injection, schedule: Q04DX003 (ip), vehicle: saline) of the same compound?
The T/C was 285 % of control.

What does the source list for CC(C)CC(NC(=O)C(C)N)C(=O)NCC(=O)O (configuration not stated)?
T/C (dose: 50.0 mg/kg/injection, schedule: Q01DX005 (ip), vehicle: saline): 100 % of control; T/C (dose: 100.0 mg/kg/injection, schedule: Q01DX005 (ip), vehicle: saline): 91 % of control; T/C (dose: 200.0 mg/kg/injection, schedule: Q01DX005 (ip), vehicle: saline): 103 % of control

What does the source list for COC1C(O)=C2C(=O)OC(C)(O)/C=C/C=C\C=C/C=C/C(c3ccccc3)NC(=O)/C=C/C=C/C=C/C=C/C2(C)C1O (configuration not stated)?
T/C (dose: 0.78 mg/kg/injection, schedule: Q01DX009 (ip), vehicle: Klucel (hydroxypropylcellulose) (HPC)): 88 % of control; T/C (dose: 1.56 mg/kg/injection, schedule: Q01DX009 (ip), vehicle: Klucel (hydroxypropylcellulose) (HPC)): 107 % of control; T/C (dose: 3.12 mg/kg/injection, schedule: Q01DX009 (ip), vehicle: Klucel (hydroxypropylcellulose) (HPC)): 107 % of control

With N#CC(C#N)=Cc1ccc2c(c1)CCC2 as the compound, how does the T/C (dose: 5.0 mg/kg/injection, schedule: Q04DX003 (ip), vehicle: saline with Tween-80) read?
The T/C was 104 % of control.

What about the T/C (dose: 9.5 mg/kg/injection, schedule: Q01DX009 (ip), vehicle: saline with Tween-80) of the same compound?
Its T/C is 104 % of control.

And the T/C (dose: 10.0 mg/kg/injection, schedule: Q04DX003 (ip), vehicle: saline with Tween-80)?
Its T/C is 95 % of control.

What about the T/C (dose: 19.0 mg/kg/injection, schedule: Q01DX009 (ip), vehicle: saline with Tween-80) of the same compound?
The T/C was 109 % of control.

And the T/C (dose: 20.0 mg/kg/injection, schedule: Q04DX003 (ip), vehicle: saline with Tween-80)?
Its T/C is 95 % of control.

What about the T/C (dose: 38.0 mg/kg/injection, schedule: Q01DX009 (ip), vehicle: saline with Tween-80) of the same compound?
Its T/C is 86 % of control and 100 % of control.

Which results are given for C(=N/NC1=NCCN1)/c1c2ccccc2c(/C=N\NC2=NCCN2)c2ccccc12?
T/C (dose: 1.56 mg/kg/injection, schedule: Q04DX002 (ip), vehicle: saline): 209 % of control; T/C (dose: 3.12 mg/kg/injection, schedule: Q04DX002 (ip), vehicle: saline): 229 % of control; T/C (dose: 6.25 mg/kg/injection, schedule: Q04DX002 (ip), vehicle: saline): 239 % of control; T/C (dose: 12.5 mg/kg/injection, schedule: Q04DX002 (ip), vehicle: saline): 209 % of control; T/C (dose: 25.0 mg/kg/injection, schedule: Q04DX002 (ip), vehicle: saline): 229 % of control; T/C (dose: 50.0 mg/kg/injection, schedule: Q04DX002 (ip), vehicle: saline): 280 % of control

CC(C)(Br)C(=O)c1ccco1 was tested. Which T/C [2] did it give?
The T/C was 109 % of control.

What about the T/C [3] of the same compound?
Its T/C is 113 % of control.

And the T/C [4]?
The T/C was 113 % of control.

Which T/C [5] does the source give for CC([NH-])C(=O)O.CC([NH-])C(=O)O.[Ni+2] (configuration not stated) here?
Its T/C is 109 % of control.

And the T/C (dose: 6.25 mg/kg/injection, schedule: Q01DX009 (ip), vehicle: saline)?
The T/C was 103 % of control.

And the T/C (dose: 8.0 mg/kg/injection, schedule: Q01DX009 (ip), vehicle: saline)?
The T/C was 113 % of control.

What about the T/C (dose: 12.5 mg/kg/injection, schedule: Q01DX009 (ip), vehicle: saline) of the same compound?
The T/C was 107 % of control.

What about the T/C (dose: 15.0 mg/kg/injection, schedule: Q04DX003 (ip), vehicle: saline) of the same compound?
Its T/C is 113 % of control.

And the T/C (dose: 16.0 mg/kg/injection, schedule: Q01DX009 (ip), vehicle: saline)?
The T/C was 113 % of control.

And the T/C [1]?
Its T/C is 118 % of control.

With CC(C)(C)[N]1[Si](C)(C)[N](C(C)(C)C)[Sn]12[S][Sn]1([S]2)[N](C(C)(C)C)[Si](C)(C)[N]1C(C)(C)C as the compound, how does the T/C [3] read?
Its T/C is 100 % of control.

And the T/C [4]?
Its T/C is 94 % of control.

And the T/C [6]?
The T/C was 86 % of control.

Which results are given for CC12CCC3(CC1CCC(OC(=O)c1ccccc1)C2)OCCO3 (configuration not stated)?
T/C (dose: 22.0 mg/kg/injection, schedule: Q01DX009 (ip), vehicle: other): 109 % of control; T/C (dose: 33.0 mg/kg/injection, schedule: Q01DX009 (ip), vehicle: other): 109 % of control; T/C (dose: 44.0 mg/kg/injection, schedule: Q04DX003 (ip), vehicle: other): 100 % of control; T/C (dose: 50.0 mg/kg/injection, schedule: Q01DX009 (ip), vehicle: other): 109 % of control; T/C (dose: 66.0 mg/kg/injection, schedule: Q04DX003 (ip), vehicle: other): 109 % of control; T/C (dose: 75.0 mg/kg/injection, schedule: Q01DX009 (ip), vehicle: other): 109 % of control; T/C (dose: 100.0 mg/kg/injection, schedule: Q04DX003 (ip), vehicle: other): 100 % of control; T/C (dose: 150.0 mg/kg/injection, schedule: Q04DX003 (ip), vehicle: other): 100 % of control; T/C (dose: 200.0 mg/kg/injection, schedule: Q01DX009 (ip), vehicle: other): 109 % of control; T/C (dose: 200.0 mg/kg/injection, schedule: Q04DX003 (ip), vehicle: other): 109 % of control; T/C (dose: 400.0 mg/kg/injection, schedule: Q01DX009 (ip), vehicle: other): 104 % of control; T/C (dose: 400.0 mg/kg/injection, schedule: Q04DX003 (ip), vehicle: other): 109 % of control

How did the T/C [3] turn out when OC(Cc1cccnc1)(c1ccccc1)c1ccc(Cl)cc1 (configuration not stated) was run?
Its T/C is 105 % of control.

And the T/C [4]?
The T/C was 100 % of control.

What about the T/C [6] of the same compound?
Its T/C is 96 % of control.

Which results are given for O=C1C(C2OC2c2ccccc2)CCCC1C1OC1c1ccccc1 (configuration not stated)?
T/C (dose: 100.0 mg/kg/injection, schedule: Q04DX003 (ip), vehicle: saline sonified): 100 % of control; T/C [6]: 91 % of control; T/C (dose: 200.0 mg/kg/injection, schedule: Q04DX003 (ip), vehicle: saline sonified): 95 % of control; T/C [7]: 87 % of control; T/C (dose: 400.0 mg/kg/injection, schedule: Q04DX003 (ip), vehicle: saline sonified): 95 % of control

Which results are given for Cn1c(=O)c2c(nc(CCCCc3nc4c(c(=O)n(C)c(=O)n4C)n3C)n2C)n(C)c1=O?
T/C [4]: 91 % of control; T/C [6]: 88 % of control

CCCC1CC[N-]CC1.CCCC1CC[N-]CC1.[Cl][Pt+2][Cl] was tested. Which T/C [2] did it give?
The T/C was 122 % of control.

What about the T/C (dose: 44.0 mg/kg/injection, schedule: Q04DX003 (ip), vehicle: saline) of the same compound?
Its T/C is 96 % of control.

What about the T/C (dose: 50.0 mg/kg/injection, schedule: Q01DX009 (ip), vehicle: Klucel (hydroxypropylcellulose) (HPC)) of the same compound?
Its T/C is 118 % of control.

And the T/C (dose: 66.0 mg/kg/injection, schedule: Q04DX003 (ip), vehicle: saline)?
Its T/C is 116 % of control.

What about the T/C (dose: 100.0 mg/kg/injection, schedule: Q04DX003 (ip), vehicle: saline) of the same compound?
The T/C was 112 % of control.

And the T/C (dose: 132.0 mg/kg/injection, schedule: Q04DX003 (ip), vehicle: saline with Tween-80)?
Its T/C is 100 % of control.

What about the T/C (dose: 200.0 mg/kg/injection, schedule: Q04DX003 (ip), vehicle: saline with Tween-80) of the same compound?
Its T/C is 95 % of control.

And the T/C (dose: 300.0 mg/kg/injection, schedule: Q04DX003 (ip), vehicle: Klucel (hydroxypropylcellulose) (HPC))?
Its T/C is 100 % of control.

Which T/C (dose: 12.5 mg/kg/injection, schedule: Q01DX009 (ip), vehicle: saline with Tween-80) does the source give for CSc1nc(=O)c(=O)nc(Nc2ccccc2)n1-c1ccccc1 here?
The T/C was 88 % of control.

What about the T/C [2] of the same compound?
The T/C was 95 % of control.

And the T/C [3]?
The T/C was 88 % of control.

With CCOC(=O)c1ccc(=O)n(C(C)C)c1 as the compound, how does the T/C (dose: 100.0 mg/kg/injection, schedule: Q04DX003 (ip), vehicle: Klucel (hydroxypropylcellulose) (HPC)) read?
Its T/C is 90 % of control.

What about the T/C (dose: 200.0 mg/kg/injection, schedule: Q04DX003 (ip), vehicle: Klucel (hydroxypropylcellulose) (HPC)) of the same compound?
The T/C was 90 % of control.

And the T/C (dose: 400.0 mg/kg/injection, schedule: Q04DX003 (ip), vehicle: Klucel (hydroxypropylcellulose) (HPC))?
The T/C was 100 % of control.

CSc1ncc(Br)c(C(=O)O)n1 was tested. Which T/C [4] did it give?
Its T/C is 95 % of control.

What about the T/C [6] of the same compound?
Its T/C is 100 % of control.

What about the T/C [7] of the same compound?
Its T/C is 104 % of control.

With COc1cc(OC)c(C(=O)CCc2ccccc2)c(O)c1Cc1ccccc1O as the compound, how does the T/C (dose: 0.5 mg/kg/injection, schedule: Q01DX009 (ip), vehicle: saline) read?
Its T/C is 106 % of control.

And the T/C (dose: 2.0 mg/kg/injection, schedule: Q01DX009 (ip), vehicle: saline)?
The T/C was 113 % of control.

And the T/C (dose: 4.0 mg/kg/injection, schedule: Q01DX009 (ip), vehicle: saline with Tween-80)?
Its T/C is 120 % of control.

And the T/C [5]?
The T/C was 103 % of control.

What about the T/C (dose: 5.9 mg/kg/injection, schedule: Q01DX009 (ip), vehicle: saline with Tween-80) of the same compound?
The T/C was 103 % of control.

And the T/C (dose: 13.0 mg/kg/injection, schedule: Q01DX009 (ip), vehicle: saline with Tween-80)?
The T/C was 103 % of control.
